# Data as given in patent US20060111289A1, “Compositions and methods of using Alpha-fetoprotein growth inhibitory peptides” (Serometrix, LLC,, priority 2004, published 2006).
# Where a SMILES comes first, the peptide text is derived from it.
# Test system: cell cycle gene mRNA in MCF-7 cells
# Test: Quantitative RT-PCR of cell cycle gene mRNA in MCF-7 cells
# Type: cell-based, human
# Details: for Cyclin E1 mRNA levels, Fold Decrease: eight day treatment
# Protocol: MCF-7 cell cultures grown in charcoal-stripped medium for 24 hours were seeded in 6-well plates and allowed to attach for 24 hours before treatment with 1×10^−7M of the cyclic, linear, or scrambled peptide, or a vehicle control for either 24 or 48 hours. Total RNA was isolated using TriReagent (Molecular Research Center Inc.) and quantified using the Genequant Pro (Ambersham Biosciences).
# Standard curves for each primer were prepared and RNA samples were reverse transcribed and screened for the genes of interest using the One Step RT-PCR kit (Qiagen Inc.) in the Roche Light Cycler. Each sample was run in duplicate, and the entire experiment was replicated resulting in two independent samples for each treatment.
# MCF-7 cell cultures were maintained in medium with charcoal-stripped bovine serum for 24 hours prior to seeding in 6-well plates. Seeding densities varied with treatment time and were aimed at obtaining 80% confluent cell cultures at the time of harvesting; after 24, 48, or 72 hours of treatment. RNA isolation was performed as above.
# MCF-7 cell cultures were maintained as above and seeded in 6-well plates at a low seeding density to obtain cell cultures that were 80% confluent at the end of the treatment. Cell cultures were treated with various concentrations of the cyclic peptide 24 hours after seeding and then every two days until harvesting the cells at day eight post-treatment RNA was isolated from each treatment.
# MCF-7 cells were seeded in DC5 medium into each well of two 6-well plates and allowed to attach for 24 hours at which point the seeding medium was exchanged for serum-free medium for 24 hours. After 24 hours in serum-free medium the cells were re-fed with DC5-stripped medium containing either the vehicle control (DMSO) or GIP (from 1×10^−14 to 1×10^−5 M). Cells were re-fed every 48 hours until they were harvested after eight days of treatment and RNA was isolated. The entire procedure was repeated resulting in two independent RNA isolations. The quantity and quality of RNA isolated from each eight-day exposure for each of the concentrations are shown below. The quantity and quality of RNA obtained from these exposures is sufficient to determine the RNA expression levels of numerous genes.
# MCF-7 cells were seeded at 1×10^6 cells per well in 6-well plates. The cells were incubated for 192 h in medium containing charcoal/dextran-treated BCS and test compounds described above in the proliferation assay. Peptide was administered each day for 8 days. Total RNA was isolated using the RNAqueous 4 PCR kit (Ambion Inc.) or Tri Reagent (Molecular Research Center, Inc.). The quality of the RNAs were assessed by electrophoresis on denaturing agarose gels and were quantified at 260 nm with the Genequant Pro (Amersham Biosciences).
# Details for the quantitative RT-PCR protocol were previously reported. Fasco et al., “Quantitative RNA-polymerase chain reaction-DNA analysis by capillary electrophoresis and laser-induced fluorescence” Anal. Biochem. 224:140-147 (1995). Briefly, RNA samples were reverse transcribed and amplified using the One Step RT-PCR kit (Qiagen Inc.) in the Roche Light Cycler. Total RNA was diluted to […] for all genes assayed except for 28S, which was diluted to 0.001 mg/ml. Diluted total RNA ([…]) was incubated with Qiagen RT-PCR master mix and was reverse transcribed for 30 min at 50° C. Following reverse transcription, samples were heated for 15 min at 95° C. to activate the HotStarTaq DNA polymerase and to simultaneously inactivate the reverse transcriptase. Gozgit et al., “Differential action of polycyclic aromatic hydrocarbons on endogenous estrogen-responsive genes and on a transfected estrogen-responsive reporter in MCF-7 cells” Toxicol. & Appl. Pharmacol. 196:58-67 (2004).
# Gene-specific primers ([…]) were used for the following: Cyclin D3, D1, CDK2, CDK4, CDK6, RB1, Ki67, Cyclin E1, Cyclin BI, and with B-Actin serving as housekeeping (control) gene. […]
compound,measurement,setting,value
"CC[C@H](C)[C@H](NC(=O)[C@@H]1CSSC[C@H](NC(=O)[C@H](C)NC(=O)[C@H](CC(C)C)NC(=O)[C@H](CC(C)C)NC(=O)[C@H](CCCCN)NC(=O)[C@H](CC(=O)O)NC(=O)[C@H](CCC(=O)O)NC(=O)[C@H](CO)NC(=O)[C@@H](N)CC(C)C)C(=O)NCC(=O)N[C@@H](CCC(=O)O)C(=O)NCC(=O)N[C@@H](C)C(=O)N[C@@H](C)C(=O)N[C@@H](CC(=O)O)C(=O)N[C@@H]([C@@H](C)CC)C(=O)N[C@@H]([C@@H](C)CC)C(=O)N[C@@H]([C@@H](C)CC)C(=O)NCC(=O)N[C@@H](Cc2c[nH]cn2)C(=O)N[C@@H](CC(C)C)C(=O)N1)C(=O)N[C@@H](CCCNC(=N)N)C(=O)N[C@@H](Cc1c[nH]cn1)C(=O)N[C@@H](CCC(=O)O)C(=O)N[C@@H](CCSC)C(=O)N[C@H](C(=O)N1CCC[C@H]1C(=O)N[C@H](C(=O)N[C@@H](CC(N)=O)C(=O)N1CCC[C@H]1C(=O)NCC(=O)N[C@H](C(=O)O)C(C)C)C(C)C)[C@@H](C)O [Cyclic GIP] (HELM PEPTIDE1{L.S.E.D.K.L.L.A.C.G.E.G.A.A.D.I.I.I.G.H.L.C.I.R.H.E.M.T.P.V.N.P.G.V}$PEPTIDE1,PEPTIDE1,9:R3-22:R3$$$V2.0; N-terminus and C-terminus assumed)","mRNA levels of CDK2, CDK4, CDK6, Cyclin D1, CCND3, RB1","1×10^−7 M, 24 or 48 hours",did not result in significant changes in mRNA levels
same,"Cyclin D1 mRNA, fold increase",8 days,1.71 fold
same,"Ki67, cdk2, cdk6, and Cyclin B1 mRNA levels",8 days,no effect
same,"Rb1 mRNA, fold increase",8 days,2.4 fold
same,"cdk4 mRNA, fold increase",8 days,2.4 fold
same,"Expression of Cyclin D1, RB1 and CDK4","8 days, 0.1 nM (Cyclin D1 and RB1) or 1 pM (CDK4)",increased about two-fold
same,"Cyclin-E mRNA, fold reduction","8 days, 10^−8 to 10^−12 M",2.1 to 4.6 fold
same,Expression levels of Cyclin E1,"8 days, each of the five concentrations tested",greatly reduced
same,"Ki67, cdk2, cdk6, and Cyclin B1 mRNA levels","8 days, listed as cyclic peptide",little changes in mRNA expression levels
same,"Cyclin E1 mRNA levels, Fold Decrease",concentration 1e−08 (10 nM),4.58 fold
same,"Cyclin E1 mRNA levels, Fold Decrease",concentration 1e−09,3.03 fold
same,"Cyclin E1 mRNA levels, Fold Decrease",concentration 1e−10,2.07 fold
same,"Cyclin E1 mRNA levels, Fold Decrease",concentration 1e−11,2.36 fold
same,"Cyclin E1 mRNA levels, Fold Decrease",concentration 1e−12 (1 pM),3.26 fold
